Test results as given in patent publication US20250042880A1 (UNIVERSITY OF KENTUCKY RESEARCH FOUNDATION, priority 2021, published 2025).

Tests used:
HCT116 cells = assay: Cell proliferation inhibition assay, HCT116; assay type: cell-based; conditions: Homo sapiens, HCT-116, 120 h; 5 days, viable cells counted
Protocol: (§1) Cell proliferation inhibition assay-Cell proliferation inhibition assay was performed as previously reported (48). All compounds to be tested were dissolved at 10 mM in DMSO. The cells were seeded into 12-well plates at a density of 40,000 cells per well in 1 mL of culture medium and were cultured overnight at 37° C. Either 1 μL of the compounds or the vehicle control (DMSO) was added to the cells. After 5 days, the medium was removed, and 200 μL of 0.25% trypsin was added. The cells were resuspended in 800 μL phosphate-buffered saline (PBS) and counted with Vi-CELL XR 2.03 (Beckman Coulter, Inc. USA). The ratio R of the number of viable cells in the compound-treated group to the number of viable cells in the DMSO-treated group was called relative growth rate, and the growth inhibition was calculated as (1−R)*100.
(§2) Cell proliferation inhibition assay was conducted according to a previous report (48). The cells were split into 12-well plates at a density of 40,000 cells per well in 1 mL of culture medium and were cultured overnight at 37° C. Either 1 μL of the compounds dissolved at 10 mmol/L in DMSO or the vehicle control (DMSO) was added to the cells. After 5 days, removed the medium, and 200 μL of 0.25% trypsin was added. The cells were resuspended in phosphate-buffered saline (PBS) and counted with Vi-CELL XR 2.03 (Beckman Coulter, Inc. USA). The ratio R of the number of viable cells in the compound treatment group to the number of viable cells in the DMSO treatment group was defined as the relative growth rate, and the growth inhibition rate was calculated as (1−R)*100.

LS174T cells [1] = assay: Seahorse oxygen consumption rate assay; assay type: cell-based; conditions: rotenone/antimycin A replaced with compound
Protocol: Seahorse oxygen consumption rate assay-Seahorse assays were conducted in accordance with a published protocol (50). Mitochondrial bioenergetic measurements were performed using the Seahorse XFe96 Extracellular Flow Analyzer (Agilent Technologies, Santa Clara, CA, USA) to measure the oxygen consumption rate (OCR) in different respiratory states. 2.5×10^4 LS174T cells in 80 μL medium were seeded in XF96 Cell Culture microplate and cultured overnight. Then cell culture media were replaced with Seahorse XF modified media before cells were treated. […] To test whether compounds were ETC complex I or III inhibitors, rotenone and antimycin A were replaced with DMSO, or compounds in DMSO solution.
The Seahorse assays were performed in compliance with a pre-announced procedure (41). Oxygen consumption was measured using the Seahorse XFe96 Extracellular Flow Analyzer (Agilent Technologies, Santa Clara, CA, USA). 2.5×10^4 LS174T cells were seeded in XF96 Cell Culture microplate in 80 μL culture medium and incubated overnight. On the following day, the cell culture media were exchanged with Seahorse XF modified media. 1.0 μmol/L oligomycin, 1.0 μmol/L FCCP, and a mixture of 1.0 μmol/L rotenone and 1.0 μmol/L antimycin A were sequentially added during the measurements. […]

LS174T cells [2] = assay: Apoptosis by flow cytometry (Annexin V-FITC/PI); assay type: cell-based; conditions: 24 h, DBI-6 3 μM, BAY-876 1 μM, DMSO 17.28%
Protocol: LS174T cells were cultured in 6-well plates at 37° C. for 24 hours. 3 μmol/L DBI-6 or 1 μmol/L BAY-876 were added to the cells and incubated for 24 hours. Cells of combination therapy group were treated with both DBI-6 and BAY-876. Then cells were harvested and washed with cold PBS twice and resuspended in 500 μL Binding Buffer. SubsequenμLy, the cells were stained with Annexin V-FITC and propidium iodide (PI) and incubated in dark for 5 minutes. The percentages of apoptosis and necrosis were determined by flow cytometry (BeckmanCoulter, Brea, CA, USA).

LS174T xenografts = LS174T xenografts in Rag1 mice; assay type: in vivo, mouse; conditions: DBI-6 40 mg/kg/day IP, BAY-876 3 mg/kg oral, 12 days
Description: Rag1 mice of 6 to 8 weeks of age were kindly provided by Institute of Genetics and Developmental Biology, Chinese Academy of sciences. LS174T cells in exponential growth phase were harvested and mixed with an equal volume of Matrigel (Corning, Glendale, Arizona). Each mouse was subcutaneously injected on the lower flanks with 2×10^6 cells. Tumor cell-injected mice were randomly divided into control and treatment groups when tumors were established and reached an average volume of 100 mm^3 (3 male and 3 female mice/group, two tumors on each mouse).
After tumors were established, DBI-6 was formulated in a mixture of ethanol (5%), 20% solutol and 20% Cremophor EL (50%) and Citric acid (45%; 50 mmol/L, pH4.5) and was daily intraperitoneally administered to the DBI-6 group at dose of 40 mg/kg mouse body weight. BAY-876 was dissolved in DMSO (10%), PEG400 (25%), Tween 80 (5%) and PBS (60%) and was given to the mice by gavage feeding to the BAY-876 group at a daily dose of 3 mg/kg mouse body weight. […]
The tumor sizes and mouse weights were measured every three days with calipers, and the tumor volume (Length×width^2/2) were calculated. […] Then the tumor sections were analyzed with H&E and Ki-67 staining. Plasma was collected and analyzed with the assay kit (Jiancheng Bioengineering Institute, Nanjing, China) according to the manufacturer's protocol. […]

LS174T cells [3] = assay: Cell proliferation inhibition assay, LS174T; assay type: cell-based; conditions: for IC50: Homo sapiens, LS174T, 120 h, 5 days, viable cells counted
Protocol: as §1, §2

O=c1c(-c2ccc(Cl)c(Cl)c2)coc2cc(OCCN3CCN(CCO)CC3)ccc12 [DBI-6, 3-(3,4-dichlorophenyl)-7-(2-(4-(2-hydroxyethyl)piperazin-1-yl)ethoxy)-4H-chromen-4-one]
IC50 (HCT116 cells): 530 nM | oxygen consumption rate (OCR) (LS174T cells [1]): suppressed OCR in a similar manner to rotenone/antimycin A | apoptosis rate (percentage of apoptotic cells) (LS174T cells [2]): 30.61% | tumor growth (LS174T xenografts): Tumor growth was inhibited | IC50 (LS174T cells [3]): 1140 nM

Cc1c(NC(=O)c2cc(C(N)=O)nc3cc(F)ccc23)c(C(F)(F)F)nn1Cc1ccc(C#N)cc1 [BAY-876, N^4-[1-(4-cyanobenzyl)-5-methyl-3-(trifluoromethyl)-1H-pyrazol-4-yl]-7-fluoroquinoline-2,4-dicarboxamide]
IC50 (HCT116 cells): 170 nM | apoptosis rate (percentage of apoptotic cells) (LS174T cells [2]): 34.57% | tumor growth (LS174T xenografts): Tumor growth was inhibited | inhibition of proliferation of LS174T cells (LS174T cells [3]): inhibited the proliferation of these cell lines at nanomolar concentrations | IC50 (LS174T cells [3]): 130 nM
